Laboratory results as given in patent publication US20060058392A1, “Use of a rhein in a therapeutic treatment requiring a rise in the rate of heme oxygenase” (priority 2002, published 2006).

Experiments:
[1] = test system: TO mice implanted with rat tissue; assay: Induced granuloma and tissue degradation of rat tissue implanted subcutaneously in mice; format: in vivo, mouse; conditions: for integrity of the implanted/grafted tissue / tissular reaction (granuloma, inflammatory cells, exudate) caused by the transplant of rat tissue to the mouse: overall statement
Experimental: The effect of diacerein, rhein and their salts or esters on the intensity of the tissular reaction and the destruction and rejection phenomena was assessed following a tissue implantation, using the model of induced granuloma and tissue degradation of rat tissue in mice (Bottomley K M and al., Osteoarthritis and Cartilage (1998) 6: 19-23.).
The method comprises the following steps: • The isolated tissue (Wistar rat, male) are placed in sterile cotton and implanted subcutaneously in TO mice; • the subcutaneous implants are kept for a period of 2 weeks; • daily treatment of the animals with diacerein, rhein, their salts or esters, as well as with the controls and comparatives, at the optimum doses indicated; • collection of the implanted tissue and of the reactive granuloma; • measurement of the degree of tissular inflammatory response (assessment of the dimensions of the granuloma, of the number of inflammatory cells in the exudate and of the volume of the exudate), and of the rejection (assessment of the degradation of the implanted tissue).

heme oxygenase-1 (HO-1) [2] = assay: Western blot of HO-1 expression in rat femoral head cartilage culture; format: cell-based; conditions: diacerein 10 μM and 100 μM, compared to control and reference solution, FIG. 7a
heme oxygenase-1 (HO-1) [3] = assay: Western blot of HO-1 expression in mice macrophages; format: cell-based; conditions: 10^−5 M, analysed at 15, 30, 60 min (diacerein, FIG. 7b) or 0-120 min and 18 h (rhein, FIG. 7c)
Experimental: FIGS. 7b and 7c are also <<Western blots >> of cells (model: mice macrophages) cultivated with and without diacerein (FIG. 7b: columns “Dε” and “Cε” respectively) or rhein (FIG. 7c) at a concentration of 10^−5 M, and later analysed at 15, 30 and 60 minutes (FIG. 7b) and at 0, 15, 30, 60, 120 minutes as well as 18 hours (FIG. 7c). The identity of the protein of interest, HO-1, was confirmed as regards its molecular mass (first column on the left in the Figures).

human chondrocytes = assay: Human chondrocyte culture treated with erythrocyte lysate (cellular viability, apoptosis); format: cell-based; conditions: lysate of 3×10^6 erythrocytes, 100 μM
Experimental: The whole cellular culture was measured by its cellular viability (live cells compared to the control), the presence of apoptosis (nuclear fragmentation; in number and percentage compared to the control), and the incorporation of radioactive sulphate (^35SO4; in coups per minutes, CPM).
As was already observed with the femoral head cartilage, the erythrocytes, erythrocyte lysate and haemoglobin also cause cellular destruction in this model. However, stress-induced HSPs prevent this cellular destruction and preserve the cells, as shown on FIG. 6 which counts the live cells (model: human chondrocytes under thermal stress (1 h at 43° C.) and treated with erythrocyte lysate (3×10^6); sem=standard error).

[4] = test system: patients presenting with osteoarthritis; conditions: cited from earlier work; for antalgic and anti-inflammatory symptomatic activity: acute phase of osteoarthritis, Nguyen et al. 1994
[5] = cited from earlier work

SMILES	tissular reaction (formation of the reactive granuloma) ([1]; 5, 15 and 50 mg/kg per oral route, daily, 2 weeks, p<0.01 vs control, FIG. 10)	integrity of the grafted tissue: content in collagen ([1]; 5, 15 and 50 mg/kg per oral route, p<0.05 / p<0.01 vs control, FIG. 12 left)	integrity of the grafted tissue: content in glycosamino-glycan (GAG) ([1]; 5, 15 and 50 mg/kg per oral route, p<0.05 / p<0.01 vs control, FIG. 12 right)	tissular reaction: number of inflammatory cells ([1]; 5, 15 and 50 mg/kg per oral route, p<0.05 vs control, FIG. 11 left)	tissular reaction: volume of the exudate ([1]; 5, 15 and 50 mg/kg per oral route, p<0.05 vs control, FIG. 11 right)	integrity of the implanted/grafted tissue [1]	tissular reaction (granuloma, inflammatory cells, exudate) caused by the transplant of rat tissue to the mouse [1]	expression of HO-1 (heme oxygenase-1 (HO-1) [2])	expression of HO-1 (heme oxygenase-1 (HO-1) [3])	cellular destruction caused by the erythrocyte lysate (live cells) (human chondrocytes; FIG. 8)	antalgic and anti-inflammatory symptomatic activity [4]	progression of osteoarthritis ([4]; patients with osteoarthritis)	safety of use ([4]; patients with osteoarthritis)	solubility in alcohols [5]	solubility in water [5]	apoptosis caused by the erythrocyte lysate (human chondrocytes; FIG. 9)
CC(=O)Oc1cccc2c1C(=O)c1c(OC(C)=O)cc(C(=O)O)cc1C2=O [diacerein]	dose-dependent reduction	preserves the integrity of the grafted tissue	preserves the integrity of the grafted tissue	reduced in a dose-dependent manner	reduced in a dose-dependent manner	preserve the integrity of the implanted tissue	reduce the tissular reaction	dose-dependent increase	time-dependant increase	prevents the cellular destruction	moderate	slows down the progression of osteoarthritis	good safety of use	very slightly soluble	very slightly soluble	–
O=C(O)c1cc(O)c2c(c1)C(=O)c1cccc(O)c1C2=O [rhein]	–	–	–	–	–	preserve the integrity of the implanted tissue	reduce the tissular reaction	–	time-dependant increase	–	moderate	–	–	very slightly soluble	very slightly soluble	prevents the apoptosis
